Data as given in paper PMC11571207, “Stereorandomized Oncocins with Preserved Ribosome Binding and Antibacterial Activity” (Journal of Medicinal Chemistry, 2024).
In brackets after ≈: the same amount, converted by molar mass. Non-standard residues stand in square brackets, D forms with d. Residues, ends and D or L forms follow the SMILES beside them. No end group written: not given here.

Assays:
human red blood cells = test: Hemolysis assay, minimum hemolytic concentration; conditions: for Haemolysis on hRBC, MHC: 2.5% human red blood cells (final) in 10 mM phosphate, 150 mM NaCl, pH 7.4, 25 °C, 4 h, visual inspection; for MHC human red blood cells: supplement CSV
S. aureus COL (MRSA) = test: microbe, parasite or virus in culture; conditions: for MIC S. aureus, 12.5% MHB / MIC S. aureus, Full MHB: S. aureus COL (MRSA), 16–20 h at 37 °C; for MIC S. aureus, 12.5% MHB: 12.5% Müller–Hinton medium; for MIC S. aureus, Full MHB: full Müller–Hinton medium; for MIC S. aureus COL (MRSA): supplement CSV
Description: (§1) We tested antibacterial effects against the Gram-negative bacteria Escherichia coli, Klebsiella pneumoniae, Pseudomonas aeruginosa, and Acinetobacter baumannii and the Gram-positive methicillin-resistant Staphylococcus aureus (MRSA).
(§2) Bacterial growth assay (Figure S1), transmission electron microscopy (Figure S6), serum stability assay (Figure S7), circular dichroism spectral recording (Figures S8 and S9), antimicrobial and hemolysis activity assays (MIC and MHC), and vesicle leakage assay were carried out as described in earlier publications.[43],[44]
(§3) Minimum inhibitory concentration assay
(§4) Antimicrobial activity was assayed against P. aeruginosa PAO1, K. pneumoniae NCTC418, E. coli W3110, A. baumannii ATCC 19606, methicillin-resistant S. aureus COL (MRSA), and for selected peptides on P. aeruginosa PA14 and the polymyxin-B-resistant derivative PA14 2P4, as well as the clinical isolates ZEM-1A and ZEM9A, K. pneumoniae OXA-48, S. aureus Newman, Enterobacter cloacae and Burkholderia cenocepacia. The minimal inhibitory concentration (MIC) was determined by using broth microdilution method. A colo ny of bacteria was picked and grown in Luria-Bertani (LB) medium overnight at 37°C. For E. coli BW25113 sbmA::kan the medium was supplemented with 25 mg/L of kanamycin. The next day, the culture was then regrown in LB medium to log phase (OD600 = 0.6 to 0.8), which lasted approximately 4 h, and diluted to an OD600 of 0.022 in the desired medium. Stock solutions of 1 mg/mL of the samples were prepared in sterilized milliQ water and diluted to the beginning concentration of 64 μg/mL in 300 μL Mueller Hinton (MH)-medium. The diluted samples were added to first well of 96-well microtiter plate (TPP, untreated, Faust Laborbedarf, AG, Schaffhausen) and diluted serially by ½. Finally, 4 μL of the bacterial suspension was inoculated into the sample solutions (150 μL/well) with a final inoculation of about 5∙10^5 CFU/mL. The plates were then incubated at 37°C for 15-18h. For each assay, sterility (broth only) and growth control (broth with bacterial inoculum, without antibiotics) were checked with two columns in the plate. The next day, 15 μL of 3-(4,5-dimethylthiazol-2-yl)-2,5-diphenyltetrazolium bromide (MTT) was added to each well of the plate, such a way that MIC was defined as the lowest concentration of the peptide that inhibited visible growth of the tested

P. aeruginosa PAO1 = test: microbe, parasite or virus in culture; conditions: for MIC P. aeruginosa, 12.5% MHB / MIC P. aeruginosa, Full MHB: P. aeruginosa PAO1, 16–20 h at 37 °C; for MIC P. aeruginosa, 12.5% MHB: 12.5% Müller–Hinton medium; for MIC P. aeruginosa, Full MHB: full Müller–Hinton medium; for MIC P. aeruginosa PAO1: supplement CSV
Description: as §1, §2, §3, §4

E. coli W3110 = test: microbe, parasite or virus in culture; conditions: for MIC E. coli, 12.5% MHB / MIC E. coli, Full MHB: E. coli W3110, 16–20 h at 37 °C, broth microdilution; for MIC E. coli, 12.5% MHB: 12.5% Müller–Hinton medium; for MIC E. coli, Full MHB: full Müller–Hinton medium; for MIC E. coli W3110: supplement CSV
Description: as §1, §2, §3, §4

A. baumannii ATCC19606 = test: microbe, parasite or virus in culture; conditions: for MIC A. baumannii, 12.5% MHB / MIC A. baumannii, Full MHB: A. baumannii ATCC19606, 16–20 h at 37 °C; for MIC A. baumannii, 12.5% MHB: 12.5% Müller–Hinton medium; for MIC A. baumannii, Full MHB: full Müller–Hinton medium; for MIC A. baumannii ATCC19606: supplement CSV
Description: as §1, §2, §3, §4

K. pneumoniae NCTC 418 = test: microbe, parasite or virus in culture; conditions: for MIC K. pneumoniae, 12.5% MHB / MIC K. pneumoniae, Full MHB: K. pneumoniae NCTC 418, 16–20 h at 37 °C; for MIC K. pneumoniae, 12.5% MHB: 12.5% Müller–Hinton medium; for MIC K. pneumoniae, Full MHB: full Müller–Hinton medium; for MIC K. pneumoniae NCTC418: supplement CSV
Description: as §1, §2, §3, §4

Compound | Haemolysis on hRBC, MHC (human red blood cells) | MHC human red blood cells (human red blood cells) | MIC S. aureus, 12.5% MHB (S. aureus COL (MRSA)) | MIC S. aureus, Full MHB (S. aureus COL (MRSA)) | MIC S. aureus COL (MRSA) (S. aureus COL (MRSA); 12.5% MH pH 7.4) | MIC S. aureus COL (MRSA) (S. aureus COL (MRSA); full MH pH 7.4) | MIC P. aeruginosa, 12.5% MHB (P. aeruginosa PAO1) | MIC P. aeruginosa, Full MHB (P. aeruginosa PAO1) | MIC P. aeruginosa PAO1 (P. aeruginosa PAO1; 12.5% MH pH 7.4) | MIC P. aeruginosa PAO1 (P. aeruginosa PAO1; full MH pH 7.4) | MIC E. coli, 12.5% MHB (E. coli W3110) | MIC E. coli, Full MHB (E. coli W3110) | MIC E. coli W3110 (E. coli W3110; 12.5% MH pH 7.4) | MIC E. coli W3110 (E. coli W3110; full MH pH 7.4) | MIC A. baumannii, 12.5% MHB (A. baumannii ATCC19606) | MIC A. baumannii, Full MHB (A. baumannii ATCC19606) | MIC A. baumannii ATCC19606 (A. baumannii ATCC19606; 12.5% MH pH 7.4) | MIC A. baumannii ATCC19606 (A. baumannii ATCC19606; full MH pH 7.4) | MIC K. pneumoniae, 12.5% MHB (K. pneumoniae NCTC 418) | MIC K. pneumoniae, Full MHB (K. pneumoniae NCTC 418) | other results
VDKPPYLPRPRPPRRIYNR [sr6Cterm-Onc] (VDKPPYLPRPRPPRRIYNR-NH2; also: residues 14-19 stereorandomized (1:1 L/D mixture)) | >1000 µg/mL | >1000 µg/mL | > 16 µg/mL | > 64 µg/mL | >16 µg/mL | >64 µg/mL | 4 µg/mL | 64 µg/mL | 4 µg/mL | 64 µg/mL | 1 µg/mL | 8 µg/mL | 1 µg/mL | 8 µg/mL | 4 µg/mL | 32 µg/mL | 4 µg/mL | 32 µg/mL | 1 µg/mL | 4 µg/mL | MIC K. pneumoniae NCTC418 (K. pneumoniae NCTC 418; 12.5% MH pH 7.4): 1 µg/mL; MIC K. pneumoniae NCTC418 (K. pneumoniae NCTC 418; full MH pH 7.4): 4 µg/mL
VDKPPYLPRPRPPRRIYNR [sr3N5Cterm-Onc] (VDKPPYLPRPRPPRRIYNR-NH2; also: residues 1-3 and 15-19 stereorandomized (1:1 L/D mixture)) | >1000 µg/mL | >1000 µg/mL | >64 / 64 μg/mL | >64 / 64 μg/mL | 64 µg/mL | >64 µg/mL | 8 µg/mL | > 64 µg/mL | 8 µg/mL | >64 µg/mL | 1 µg/mL | 8 µg/mL | 1 µg/mL | 8 µg/mL | 4 µg/mL | 32 µg/mL | 4 µg/mL | 32 µg/mL | 1 µg/mL | 16 µg/mL | MIC K. pneumoniae NCTC418 (K. pneumoniae NCTC 418; 12.5% MH pH 7.4): 1 µg/mL; MIC K. pneumoniae NCTC418 (K. pneumoniae NCTC 418; full MH pH 7.4): 16 µg/mL
CC[C@H](C)[C@H](NC(=O)[C@H](CCCNC(=N)N)NC(=O)[C@H](CCCNC(=N)N)NC(=O)[C@@H]1CCCN1C(=O)[C@@H]1CCCN1C(=O)[C@H](CCCNC(=N)N)NC(=O)[C@@H]1CCCN1C(=O)[C@@H](CCCNC(=N)N)NC(=O)[C@@H]1CCCN1C(=O)[C@H](CC(C)C)NC(=O)[C@H](Cc1ccc(O)cc1)NC(=O)[C@@H]1CCCN1C(=O)[C@@H]1CCCN1C(=O)[C@H](CCCCN)NC(=O)[C@H](CC(=O)O)NC(=O)[C@@H](N)C(C)C)C(=O)N[C@@H](Cc1ccc(O)cc1)C(=O)N[C@@H](CC(N)=O)C(=O)N[C@@H](CCCNC(=N)N)C(N)=O [DR9-Onc] (H-VDKPPYLP[dR]PRPPRRIYNR-NH2) | >1000 µg/mL | >1000 µg/mL | >64 / >64 μg/mL | >64 / >64 μg/mL | >64 µg/mL | >64 µg/mL | 32 µg/mL (≈ 13.4 µM) | > 64 µg/mL | 32 µg/mL (≈ 13.4 µM) | >64 µg/mL | 4 µg/mL (≈ 1.67 µM) | 16 µg/mL (≈ 6.69 µM) | 4 µg/mL (≈ 1.67 µM) | 16 µg/mL (≈ 6.69 µM) | 8 µg/mL (≈ 3.35 µM) | > 64 µg/mL | 8 µg/mL (≈ 3.35 µM) | >64 µg/mL | 4 µg/mL (≈ 1.67 µM) | 16 µg/mL (≈ 6.69 µM) | MIC K. pneumoniae NCTC418 (K. pneumoniae NCTC 418; 12.5% MH pH 7.4): 4 µg/mL (≈ 1.67 µM); MIC K. pneumoniae NCTC418 (K. pneumoniae NCTC 418; full MH pH 7.4): 16 µg/mL (≈ 6.69 µM)
CC[C@H](C)[C@H](NC(=O)[C@H](CCCNC(=N)N)NC(=O)[C@H](CCCNC(=N)N)NC(=O)[C@@H]1CCCN1C(=O)[C@@H]1CCCN1C(=O)[C@H](CCCNC(=N)N)NC(=O)[C@@H]1CCCN1C(=O)[C@H](CCCNC(=N)N)NC(=O)[C@@H]1CCCN1C(=O)[C@H](CC(C)C)NC(=O)[C@H](Cc1ccc(O)cc1)NC(=O)[C@H]1CCCN1C(=O)[C@@H]1CCCN1C(=O)[C@H](CCCCN)NC(=O)[C@H](CC(=O)O)NC(=O)[C@@H](N)C(C)C)C(=O)N[C@@H](Cc1ccc(O)cc1)C(=O)N[C@@H](CC(N)=O)C(=O)N[C@@H](CCCNC(=N)N)C(N)=O [DP5-Onc] (H-VDKP[dP]YLPRPRPPRRIYNR-NH2) | >1000 µg/mL | >1000 µg/mL | >64 / 64 μg/mL | >64 / 64 μg/mL | 64 µg/mL (≈ 26.8 µM) | >64 µg/mL | > 16 µg/mL | > 64 µg/mL | >16 µg/mL | >64 µg/mL | 4 µg/mL (≈ 1.67 µM) | 32 µg/mL (≈ 13.4 µM) | 4 µg/mL (≈ 1.67 µM) | 32 µg/mL (≈ 13.4 µM) | 16 µg/mL (≈ 6.69 µM) | > 64 µg/mL | 16 µg/mL (≈ 6.69 µM) | >64 µg/mL | > 16 µg/mL | > 64 µg/mL | MIC K. pneumoniae NCTC418 (K. pneumoniae NCTC 418; 12.5% MH pH 7.4): >16 µg/mL; MIC K. pneumoniae NCTC418 (K. pneumoniae NCTC 418; full MH pH 7.4): >64 µg/mL
CC[C@H](C)[C@H](NC(=O)[C@H](CCCNC(=N)N)NC(=O)[C@H](CCCNC(=N)N)NC(=O)[C@@H]1CCCN1C(=O)[C@@H]1CCCN1C(=O)[C@@H](CCCNC(=N)N)NC(=O)[C@@H]1CCCN1C(=O)[C@H](CCCNC(=N)N)NC(=O)[C@@H]1CCCN1C(=O)[C@H](CC(C)C)NC(=O)[C@H](Cc1ccc(O)cc1)NC(=O)[C@@H]1CCCN1C(=O)[C@@H]1CCCN1C(=O)[C@H](CCCCN)NC(=O)[C@H](CC(=O)O)NC(=O)[C@@H](N)C(C)C)C(=O)N[C@@H](Cc1ccc(O)cc1)C(=O)N[C@@H](CC(N)=O)C(=O)N[C@@H](CCCNC(=N)N)C(N)=O [DR11-Onc] (H-VDKPPYLPRP[dR]PPRRIYNR-NH2) | >1000 µg/mL | >1000 µg/mL | >64 / >64 μg/mL | >64 / >64 μg/mL | >64 µg/mL | >64 µg/mL | 16 µg/mL (≈ 6.69 µM) | > 64 µg/mL | 16 µg/mL (≈ 6.69 µM) | >64 µg/mL | 2 µg/mL (≈ 0.837 µM) | 16 µg/mL (≈ 6.69 µM) | 2 µg/mL (≈ 0.837 µM) | 16 µg/mL (≈ 6.69 µM) | 16 µg/mL (≈ 6.69 µM) | 32 µg/mL (≈ 13.4 µM) | 16 µg/mL (≈ 6.69 µM) | 32 µg/mL (≈ 13.4 µM) | 2 µg/mL (≈ 0.837 µM) | 16 µg/mL (≈ 6.69 µM) | MIC K. pneumoniae NCTC418 (K. pneumoniae NCTC 418; 12.5% MH pH 7.4): 2 µg/mL (≈ 0.837 µM); MIC K. pneumoniae NCTC418 (K. pneumoniae NCTC 418; full MH pH 7.4): 16 µg/mL (≈ 6.69 µM)
